Tests used:
complement activation = details: relative to compstatin amidated at the C-terminus; published data; cited from earlier work
[1] = system: complement alternative pathway; assay: Wieslab AP assay (Complement Alternative Pathway ELISA, human serum as source of complement); assay type: biochemical; details: read-out: B: Wieslab AP IC50 (nM) (alternative pathway)
Excerpt: Among other things, the present disclosure provides compounds and compositions that can modulate complement activation. In some embodiments, provided technologies inhibit complement activation. In some embodiments, provided technologies inhibit C3 convertase. Various technologies are available for assessing provided compounds, compositions and methods. In some embodiments, a useful assay is an assay described below. In some embodiments, IC50 of a provided compound measured in an assay is about or no more than about 1000, 900, 800, 700, 600, 500, 400, 300, 200, 100, 90, 80, 70, 60, 50, 40, 30, 20, or 10 nM. In some embodiments, a useful assay is a biochemical assay assessing inhibition of C3 convertase activity by a provided compound. In some embodiments, a purified, isolated or enriched C3 convertase is utilized. In some embodiments, CVF:Bb (e.g., assembled from three components Cobra Venom Factor (CVF), Complement Factor B (FB) and Complement Factor D (FD)) was utilized (certain results are presented as “A” in the Table below). In some embodiments, a compound was first contacted with CVF:Bb, followed by addition of C3 substrates. As those skilled in the art will appreciate, products C3a and/or C3b could be detected through a number of technologies (e.g., antibodies specific for a product) and reduction of levels of one or both of them could be utilized to assess inhibition. In some embodiments, a useful assay is Wieslab© assay (certain results are presented as “B” in the Table below).
In some embodiments, classical and alternative pathway activity are assessed using Wieslab© technologies. In some embodiments, Wieslab© assay were performed with a commercially available kit, using a protocol adapted for measurement of complement inhibitory activity of compounds. In some embodiments, human serum was utilized as a positive control. In some embodiments, human serum serves as a source of complement proteins, and inhibition of complement activity of a serum by various compounds were assessed. In some embodiments, a kit is COMPL AP330, Complement Alternative Pathway ELISA, Eagle Biosciences. In some embodiments, a kit is COMPL CP310, Complement Classical Pathway ELISA, Eagle Biosciences. In some embodiments, kits are available from VWR (102994-104, Complement Alternative pathway ELISA, Eagle Biosciences, Inc.; 102994-106, Complement Classical pathway ELISA, Eagle Biosciences, Inc.).
In some embodiments, a useful procedure described below is utilized. • 1. Make fresh test compound stock at 1 mM. • 2. Test compound serial dilution: dilute the stock to working stock concentrations. Add DMSO to dilution buffer using same dilution factor for the working stock so the composition of all the serial diluted stock is the same. In some embodiments, stock was serial diluted from the working stock 1:4 (for classical pathway) or 1:2 (for alternative pathway) using new diluted dilution buffers. • 3. Dilute positive controls using the dilution buffer provided with the assay kit to 2× of the final conc., for classical pathway, 50.5×. Positive control is human serum, which contains complement proteins. • 4. Add 125 μL of test compound solution and 125 μL of diluted positive control to a 96 well polypropylene plate, mix gently and cover the plate and incubate at 4° C. for 30 min. • 5. Add 100 μL/well to the assay plate and incubate at 37° C. for 1 h. Typically, controls in the assay plate, for example, buffer alone for negative control, positive control alone to verify the complement activity of the reagent. • 6. Wash plate and add 100 μL/well conjugate, incubate at room temperature for 30 min. • 7. Wash plate and add 100 μL/well substrate, then incubate at room temperature for approximately 30 minutes. Periodically monitor the absorbance at 405 nm (OD405) in the positive control alone well. • 8. Once the OD405 is >1, read the whole plate immediately. Or stop the reaction by adding 100 μL of 5 mM EDTA to each well and read within 60 minutes.

C3 convertase (CVF:Bb) = C3 convertase (CVF:Bb) (Homo sapiens, UniProt P00751); assay: C3 Convertase Assay (biochemical assay, compound contacted with CVF:Bb, then C3 substrate added)
Excerpt: Various technologies are available for assessing provided compounds, compositions and methods. In some embodiments, a useful assay is an assay described below. […] In some embodiments, a purified, isolated or enriched C3 convertase is utilized. […] In some embodiments, a compound was first contacted with CVF:Bb, followed by addition of C3 substrates. As those skilled in the art will appreciate, products C3a and/or C3b could be detected through a number of technologies (e.g., antibodies specific for a product) and reduction of levels of one or both of them could be utilized to assess inhibition.

C3 convertase (CVF:Bb), sequence (P00751 260-764 limits assumed): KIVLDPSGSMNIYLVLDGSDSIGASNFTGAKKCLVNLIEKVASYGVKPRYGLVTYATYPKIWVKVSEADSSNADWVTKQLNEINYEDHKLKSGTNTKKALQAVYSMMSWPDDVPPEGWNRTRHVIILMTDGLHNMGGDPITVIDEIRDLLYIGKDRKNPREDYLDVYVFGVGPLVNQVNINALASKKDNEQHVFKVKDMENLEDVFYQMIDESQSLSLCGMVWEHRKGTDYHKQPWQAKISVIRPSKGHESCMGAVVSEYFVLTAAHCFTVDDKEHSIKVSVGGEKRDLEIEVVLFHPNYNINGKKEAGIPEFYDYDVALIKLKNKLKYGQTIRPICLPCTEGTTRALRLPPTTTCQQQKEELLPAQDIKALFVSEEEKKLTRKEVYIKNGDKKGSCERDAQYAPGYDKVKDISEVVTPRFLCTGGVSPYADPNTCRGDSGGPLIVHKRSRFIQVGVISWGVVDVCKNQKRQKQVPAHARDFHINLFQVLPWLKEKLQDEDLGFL

| Molecule | Activity over compstatin (complement activation) | IC50 [1] | IC50 (C3 convertase (CVF:Bb)) |
| --- | --- | --- | --- |
| Ac-ICV(2-Igl)QDWGAHRCT-COOH [Ac-V42Igl/H9A-OH] | 37xmore |  |  |
| COc1cc(C)c2[nH]ccc2c1CN1CCN(CC(F)(F)F)C[C@H]1c1ccc(C(=O)NS(C)(=O)=O)cc1 |  | 382 nM | 212 nM |
| [2H]C([2H])([2H])N1CCN(Cc2c(OC)cc(C)c3[nH]ccc23)[C@H](c2ccc(C(=O)O)cc2)C1 |  | 9 nM | 65 nM |
| COc1cc(C)c2[nH]ccc2c1CN1CCN(CCF)CC1c1ccc(C(=O)O)cc1 (stereo not drawn) |  | 107 nM | 65 nM |
| Ac-ICWVQDWGHHRCT-CONH2 (Ac-ICWVQDWGHHRCT-NH2; not fully specified (bridges); printed as Ac-ICWVQDWGHHRCT-CONH2; cysteine pairing not given here) [Ac-compstatin, "compstatin analogs useful in the present disclosure"] | 3xmore |  |  |
| COc1cc(C)c2[nH]ccc2c1CN1CCN(CCC(F)(F)F)C[C@H]1c1ccc(C(=O)NS(C)(=O)=O)cc1 |  | 65 nM | 56 nM |
| COc1cc(C)c2[nH]ccc2c1CN1CC(=O)N(C)C[C@H]1c1ccc(C(=O)O)cc1 |  | 1000 nM | 6400 nM |
| COc1cc(C)c2[nH]ccc2c1CN1CCN(CC(C)(F)F)C[C@H]1c1ccc(C(=O)O)cc1 |  | 211 nM | 272 nM |
| COc1cc(C)c2[nH]ccc2c1CN1CCN(C(C)CC(F)(F)F)C[C@H]1c1ccc(C(=O)O)cc1 (stereo partly drawn) |  | 110 nM |  |
| Ac-ICVDhtQDWGAHRCT-COOH [Ac-V4Dht/H9A-OH] | 5xmore |  |  |
| COc1cc(C)c2[nH]ccc2c1CN1CCN(CCC(F)(F)F)C[C@H]1c1ccc(C(=O)O)cc1 |  | 13 nM | 29 nM |
| COc1cc(C)c2[nH]ccc2c1CN1CCN(C(C)C(F)F)C[C@H]1c1ccc(C(=O)O)cc1 (stereo partly drawn) |  | 230 nM | 228 nM |
| Ac-ICVYQDWGAHRCT-CONH2 [Ac-V4Y/H9A] | 14xmore |  |  |
| Ac-ICV(2-Nal)QDWGAHRCT-CONH2 [Ac-V4(2-Nal)/H9A] | 99xmore |  |  |
| COc1cc(C)c2[nH]ccc2c1CN1CCN(CC(F)F)CC1c1ccc(C(=O)O)cc1 (stereo not drawn) |  | 36 nM | 76 nM |
| C=CCN1CCN(Cc2c(OC)cc(C)c3[nH]ccc23)C(c2ccc(C(=O)O)cc2)C1 (stereo not drawn) |  | 1490 nM | 250 nM |
| Ac-ICV(2-Igl)QDWGAHRCT-CONH2 [Ac-V42Igl/H9A] | 39xmore |  |  |
| COc1cc(C)c2[nH]ccc2c1CN1CCN(C2CC2)CC1c1ccc(C(=O)O)cc1 (stereo not drawn) |  | 29 nM | 141 nM |
| CCN1CCN(Cc2c(OC)cc(C)c3[nH]ccc23)C(c2ccc(C(=O)O)cc2)C1 (stereo not drawn) |  | 205 nM | 219 nM |
| Ac-ICV(1-Nal)QDWGAHRCT-COOH [Ac V4(1-Nal)/H9A-OH] | 30xmore |  |  |
| Ac-ICVWQDWGAHRCdT-COOH [Ac-V4W/H9A/T13dT-OH] | 55xmore |  |  |
| COc1cc(C)c2[nH]ccc2c1CN1CCN(Cc2ncc[nH]2)C[C@@H]1c1ccc(C(=O)O)cc1 |  | > 10000 nM |  |
| Ac-ICV(Bpa)QDWGAHRCT-COOH [Ac-V4(Bpa)/H9A-OH] | 49xmore |  |  |
| COc1cc(C)c2[nH]ccc2c1CN1CCN(C)CC1c1ccc(C(=O)O)cc1 (stereo not drawn) |  | 1570 nM | 163 nM |
| Ac-ICVWQDWGAHRCT-CONH2 (Ac-ICVWQDWGAHRCT-NH2; cysteine pairing not given here) [Ac-V4W/H9A, "compstatin analogs useful in the present disclosure"] | 45xmore |  |  |

| Molecule | Activity over compstatin (complement activation) | IC50 [1] | IC50 (C3 convertase (CVF:Bb)) |
| --- | --- | --- | --- |
| COc1cc(C)c2[nH]ccc2c1CN1CCN(CCCF)CC1c1ccc(C(=O)O)cc1 (stereo not drawn) |  | 153 nM | 119 nM |
| COc1cc(C)c2[nH]ccc2c1CN1CCN(CC(F)F)C[C@H]1c1ccc(C(=O)NS(C)(=O)=O)cc1 |  | 8 nM | 243 nM |
| COc1cc(C)c2[nH]ccc2c1CN1CCN(CCC(F)(F)F)C[C@@H]1c1ccc(C(=O)O)nc1 |  | > 10000 nM | 6440 nM |
| Ac-ICV(Bpa)QDWGAHRCT-CONH2 [Ac-V4(Bpa)/H9A] | 86xmore |  |  |
| COc1cc(C)c2[nH]ccc2c1CN1CCN(CC(F)(F)F)C[C@H]1c1ccc(C(=O)O)cc1 |  | 174 nM | 176 nM |
| COc1cc(C)c2[nH]ccc2c1CN1CCN(CCC(F)(F)F)C[C@H]1c1ccc(C(=O)O)nc1 |  | 34 nM | 96 nM |
| Cc1cc(C2CC2)c(CN2CCN(CC(F)F)C[C@H]2c2ccc(C(=O)O)cc2)c2cc[nH]c12 [drawing 450] |  | 396 nM |  |
| COc1cc(C)c2[nH]ccc2c1CN1CCN(CCO)C[C@H]1c1ccc(C(=O)O)cc1 |  | 128 nM | 350 nM |
| Ac-ICV(2-Nal)QDWGAHRCT-COOH [Ac V4(2-Nal)/H9A-OH] | 38xmore |  |  |
| COc1cc(C)c2[nH]ccc2c1CN1CCN(CCF)C[C@@H]1c1ccc(C(=O)O)cc1 |  |  | 42 nM |
| COc1cc(C)c2[nH]ccc2c1CN1CCN(CC2CCCC2)CC1c1ccc(C(=O)O)cc1 (stereo not drawn) |  |  | 3080 nM |
| COc1cc(C)c2[nH]ccc2c1CN1CCN(CC2CC2)CC1c1ccc(C(=O)O)cc1 (stereo not drawn) |  |  | 2290 nM |
| Ac-ICVWQD(5fW)GAHRCT-CONH2 [Ac-V4W/W7(5fW)/H9A] | 121xmore |  |  |
| COc1cc(C)c2[nH]ccc2c1CN1CCN(CCCF)C[C@H]1c1ccc(C(=O)O)cc1 |  |  | 99 nM |
| COc1cc(C)c2[nH]ccc2c1CN1CCN(C2COC2)CC1c1ccc(C(=O)O)cc1 (stereo not drawn) |  |  | > 10000 nM |
| COc1cc(C)c2[nH]ccc2c1CN1CCN(c2nccs2)C[C@H]1c1ccc(C(=O)O)cc1 |  |  | > 10000 nM |
| COc1cc(Cl)c2[nH]ccc2c1CN1CCN(CC(F)(F)F)CC1c1ccc(C(=O)O)cc1 (stereo not drawn) |  |  | 2700 nM |
| COc1cc(C)c2[nH]ccc2c1CN1CCN(C)C(=O)[C@H]1c1ccc(C(=O)O)cc1 |  | 1000 nM | 360 nM |
| COc1cc(C)c2[nH]ccc2c1CN1CCN(Cc2ncc[nH]2)C[C@H]1c1ccc(C(=O)O)cc1 |  | 8860 nM | > 10000 nM |
| COc1cc(C)c2[nH]ccc2c1CN1CCN(C2CCC2)CC1c1ccc(C(=O)O)cc1 (stereo not drawn) |  |  | 2580 nM |
| C#CCN1CCN(Cc2c(OC)cc(C)c3[nH]ccc23)C(c2ccc(C(=O)O)cc2)C1 (stereo not drawn) |  |  | 1070 nM |
| COc1cc(C)c2[nH]ccc2c1CN1CCN(CCC(F)F)C[C@H]1c1ccc(C(=O)O)cc1 |  | 27 nM | 27 nM |
| COc1cc(C)c2[nH]ccc2c1CN1CCN(C)C[C@H]1c1ccc(C(=O)O)cc1 (single isomer, unassigned) |  | 64 nM | 45 nM |
| H-GICV(6fW)QD(6fW)GAHRCTN-COOH [+G/V4(6fW)/W7(6fW)H9A + N-OH] | 126xmore |  |  |

Source: patent US20240360103A1, “COMPLEMENT INHIBITION” (Apellis Pharmaceuticals, Inc., priority 2021, published 2024)
